Structures can show the parent of a compound that is named as a salt.
Tests used:
[1] = In vitro release of naltrexone from drug-loaded formulations at 37° C. in isotonic phosphate buffer; type: physicochemical; settings: compared with hydrated naltrexone base; 25% 50/50 PLGA (i.v. 0.64) with pure PEG 400 or 50/50% PEG 400/TEC; drug 20% w/w
Protocol: The solutions were stirred to yield a uniform mixture. Acetone was evaporated from the mixtures by heating at 60-75° C. with constant stirring. The blank formulations were kept in a vacuum oven at 60-75° C. overnight to ensure complete removal of acetone. […] Either hydrated naltrexone base (20% w/w) or naltrexone hydrochloride (20% w/w) was added to the blank formulations and mixed thoroughly to ensure uniform distribution of the drugs in the formulations. Drug release from the drug-loaded formulations was performed at 37° C. in isotonic phosphate buffer. […] This is because the solubility of the naltrexone hydrochloride in the dissolution buffer is much greater than that of the hydrated naltrexone base.

[2] = Solubility in water / dissolution buffer; type: physicochemical
[3] = In vitro release of oxytetracycline from drug-loaded formulations at 37° C. in isotonic phosphate buffer containing sodium sulfite; type: physicochemical; settings: for drug release / drug release (rank among plasticizers): drug 20% w/w
Protocol: A polymer (25% w/w of 50/50 lactide-co-glycolide copolymer, inherent viscosity of 0.59) was dissolved in a minimum quantity of acetone. Pure polyethylene glycol 400 (PEG 400) was added to the polymer solution. The solution was stirred to yield a uniform mixture. Acetone was evaporated from the mixture by heating at 60-75° C. with constant stirring. The blank formulation was kept in a vacuum oven at 60-75° C. overnight to ensure complete removal of acetone. […] Three different concentrations of oxytetracycline base (either 10, 20 or 30% w/w) were added to the blank formulation and mixed thoroughly to ensure uniform distribution of the drug in the formulations. Drug release from the drug-loaded formulations was performed at 37° C. in isotonic phosphate buffer containing sodium sulfite as an antioxidant. […] This increase occurred because, at higher drug-loadings, more drug is available on the surface of the formulations for release. Moreover, a higher drug concentration gradient between the formulation and the dissolution medium is expected at 30% w/w drug-loading compared to the one at 10% w/w drug loading.
(§1) A polymer (25% w/w of 50/50 lactide-co-glycolide copolymer, inherent viscosity of 0.59) was dissolved in a minimum quantity of acetone. […] The resulting solutions were stirred to yield uniform mixtures. Acetone was evaporated from the mixtures by heating at 60-75° C. with constant stirring. The blank formulations were kept in a vacuum oven at 60-75° C. overnight to ensure complete removal of acetone. […] Oxytetracycline base (20% w/w) was added to each blank formulation and mixed thoroughly to ensure uniform distribution of the drug in the formulations. Drug release from the drug-loaded formulations was performed at 37° C. in isotonic phosphate buffer containing sodium sulfite as an antioxidant.
Three different concentrations (10, 20 or 25% w/w) of a polymer (50/50 lactide-co-glycolide copolymer, inherent viscosity of 0.59) were dissolved in a minimum quantity of acetone. Pure PEG 400 (90, 80 or 75% w/w) was added to the polymer solutions. The solutions were stirred to yield uniform mixtures. Acetone was evaporated from the mixtures by heating at 60-75° C. with constant stirring. The blank formulations were kept in a vacuum oven at 60-75° C. overnight to ensure complete removal of acetone. The resulting formulations obtained were matrices with varying viscosities or consistency. The formulation with 25% polymer was considerably more viscous than the one with 10% polymer. Oxytetracycline base (20% w/w) was added to each blank formulation and mixed thoroughly to ensure uniform distribution of the drug in the formulations. Drug release from the drug-loaded formulations was performed at 37° C. in isotonic phosphate buffer containing sodium sulfite as an antioxidant.
as §1, with “overmight” for “overnight”
The resulting solutions were stirred to yield uniform mixtures. Acetone was evaporated from the mixtures by heating at 60-75° C. with constant stirring. The blank formulations were kept in a vacuum oven at 60-75° C. overnight to ensure complete removal of acetone. […] Oxytetracycline base (20% w/w) was added to each blank formulation and mixed thoroughly to ensure uniform distribution of the drug in the formulations. […]

[4] = In vivo release of oxytetracycline from biodegradable delivery systems in quail; settings: delivery systems with varying polymer molecular weights (FIG. 16)
Excerpt: FIG. 16 describes the effect of varying polymer molecular weights on in vivo release of oxytetracycline base from biodegradable delivery systems.

O=C1CC[C@@]2(O)[C@H]3Cc4ccc(O)c5c4[C@@]2(CCN3CC2CC2)[C@H]1O5 [naltrexone hydrochloride]
drug release [1]: considerably faster
solubility in the dissolution buffer ([2]; compared with hydrated naltrexone base, isotonic phosphate buffer): much greater

CN(C)[C@@H]1C(=O)C(C(N)=O)=C(O)[C@@]2(O)C(=O)C3=C(O)c4c(O)cccc4[C@@](C)(O)[C@H]3[C@H](O)[C@@H]12 [oxytetracycline base]
drug release ([3]; blend of 75% PEG 400 and 25% TEC compared with 50/50% PEG 400/TEC at similar polymer to plasticizer ratio): considerably faster
drug release ([3]; effect of decreasing polymer from 25% to 10% (PEG 400 75% to 90%), 50/50 PLGA i.v. 0.59): dramatically increased the drug release
drug release ([3]; effect of decreasing polymer inherent viscosity from 0.76 to 0.15, 50/50 PLGA, PEG 400): dramatically increased the drug release
drug release ([3]; effect of going from 0% PEG 400/100% TEC to 100% PEG 400/0% TEC, 25% w/w 50/50 PLGA (i.v. 0.59)): faster drug release
cumulative amount of drug released at the end of 360 hours ([3]; effect of increasing drug loading from 10 to 30% w/w, 25% w/w 50/50 PLGA (i.v. 0.59), PEG 400): increased the cumulative amount of drug released
drug release (rank among plasticizers) ([3]; formulations prepared with ATEC, 25% w/w 50/50 PLGA (i.v. 0.59)): slowest
drug release (rank among plasticizers) ([3]; formulations prepared with PEG 400, 25% w/w 50/50 PLGA (i.v. 0.59)): fastest
drug release (rank among plasticizers) ([3]; formulations prepared with TEC, 25% w/w 50/50 PLGA (i.v. 0.59)): Intermediate drug release
drug release ([3]; polymer to plasticizer ratio 1:5 (16.67% polymer) compared with 1:3 (25% polymer), PEG 400/TEC blends): faster drug release
in vivo release [4]: desired controlled release of the OTC was achieved

CN(C)[C@@H]1C(O)=C(C(N)=O)C(=O)[C@@]2(O)C(O)=C3C(=O)c4c(O)cccc4[C@@](C)(O)[C@H]3[C@H](O)[C@@H]12 [oxytetracycline hydrochloride]
aqueous solubility ([2]; hydrochloride salt compared with the base): greater aqueous solubility

Reference: patent US20040018238A1, “Biodegradable vehicles and delivery systems of biolgically active substances” (priority 2003, published 2004)
